Assay results reported in US10377791B2, “Therapeutically active estratrienthiazole derivatives as inhibitors of 17 B-hydroxysteroid dehydrogenase, type 1” (FORENDO PHARMA LTD, priority 2013, dated 2019).
Counter-ions that a name gives are not always drawn.

Tests used:
[1] = human, tissue homogenate, 1 h
Method: The in vitro metabolic stability of the compounds of the invention was determined for exemplified compounds using human liver microsome and homogenate incubations. The incubation time points used with or without appropriate cofactors were 0 min and 60 min. Samples were collected at both time points and substrates were detected using LC/PDA/TOF-MS.

[2] = target: T1, recombinant human 17β-HSD2 (Homo sapiens, UniProt P37059); test: Inhibition of recombinant human 17β-HSD2; type: biochemical; conditions: inhibitor at 1 μM; 50 nM estradiol, 1 mM NADH, 30 min at RT; read-out: 17β-HSD2 Inhibition % at 1 μM
T1 construct: made in house; host or cells: Sd9 (Sf9) insect cells, baculovirus (Bac to Bac Expression System)
T1 sequence (P37059 1-387): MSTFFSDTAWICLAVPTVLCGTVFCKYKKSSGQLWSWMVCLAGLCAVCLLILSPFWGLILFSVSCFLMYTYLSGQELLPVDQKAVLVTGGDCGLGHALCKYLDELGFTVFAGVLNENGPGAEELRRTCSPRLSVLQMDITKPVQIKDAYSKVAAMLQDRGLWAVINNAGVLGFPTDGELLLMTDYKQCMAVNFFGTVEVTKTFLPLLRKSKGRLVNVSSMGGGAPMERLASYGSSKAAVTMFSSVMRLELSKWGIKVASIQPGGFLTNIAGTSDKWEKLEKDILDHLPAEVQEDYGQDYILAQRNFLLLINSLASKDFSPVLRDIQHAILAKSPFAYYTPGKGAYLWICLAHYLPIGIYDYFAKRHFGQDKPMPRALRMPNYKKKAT
How it was run: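 Membrane extract of baculovirus-expressed enzyme in Sf9 cells (4 μg/ml) incubated in 20 mM KH2PO4 pH 8.5 with 50 nM estradiol (³H-tracer) and 1 mM NADH, 30 min at RT, 1% DMSO, inhibitor at 1 μM or 0.1 μM. TCA-stopped; estradiol-to-estrone conversion by radio-HPLC; % inhibition = 100 − % conversion.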

[3] = target: T2, recombinant human 17β-HSD1 (Homo sapiens, UniProt P14061); test: Inhibition of recombinant human 17β-HSD1; type: biochemical; conditions: inhibitor at 1 μM; 30 nM estrone, 1 mM NADPH, 30 min at RT; read-out: 17β-HDS1 Inhibition % at 1 μM
T2 construct: made in house; host or cells: Sd9 (Sf9) insect cells, baculovirus (Bac to Bac Expression System)
T2 sequence (P14061 1-328): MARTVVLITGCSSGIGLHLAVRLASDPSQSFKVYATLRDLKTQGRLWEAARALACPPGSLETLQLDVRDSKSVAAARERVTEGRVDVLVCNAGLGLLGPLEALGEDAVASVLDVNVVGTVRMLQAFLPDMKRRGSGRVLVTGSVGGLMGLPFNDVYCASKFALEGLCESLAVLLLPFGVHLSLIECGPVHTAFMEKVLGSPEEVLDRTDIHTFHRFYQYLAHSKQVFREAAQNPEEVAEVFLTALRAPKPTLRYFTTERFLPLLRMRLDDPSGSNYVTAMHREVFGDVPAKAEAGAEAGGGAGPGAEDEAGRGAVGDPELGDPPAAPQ
How it was run: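 Microsomal enzyme from baculovirus-infected insect cells (1 μg/ml) incubated 30 min at RT in 20 mM KH2PO4 pH 7.4 with 30 nM ³H-estrone and 1 mM NADPH, inhibitor at 1 μM or 0.1 μM, 1% DMSO. TCA-stopped; estrone/estradiol separated by radio-HPLC; % inhibition = 100 − % conversion.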

Row | SMILES | In vitro metabolic stability, % remaining after 60 min [1] | inhibition at 1 µM [2] | inhibition at 1 µM [3]
1 | Cc1cnc(NC(=O)CC[C@@H]2CC(=O)[C@@]3(C)CCC4c5ccc(OS(=O)(=O)O)cc5CCC4C23)s1 (stereo partly drawn) [Compound 5, Sulphuric acid mono-{(13S,15R)-13-methyl-15-[2-(5-methylthiazol-2-ylcarbamoyl)-ethyl]-17-oxo-7,8,9,11,12,13,14,15,16,17-decahydro-6H-cyclopenta[a]phenanthren-3-yl} ester triethylamine salt] | 50% | 4% | 92%
2 | Cc1cnc(NC(=O)CC[C@@H]2CC(=O)[C@@]3(C)CCC4c5cc6ncoc6cc5CCC4C23)s1 (stereo partly drawn) [Compound 47, 3-((3R,12aS)-12a-methyl-1-oxo-2,3,3a,3b,4,5,10b,11,12,12a-decahydro-1H-cyclopenta[7,8]phenanthro[3,2-d]oxazol-3-yl)-N-(5-methylthiazol-2-yl)propanamide] | 48% | 2% | 87%
3 | Cc1cnc(NC(=O)CC[C@@H]2CC(=O)[C@@]3(C)CCC4c5cc(Br)c(O)c(Br)c5CCC4C23)s1 (stereo partly drawn) [Compound 58, 3-((13S,15R)-2,4-dibromo-3-hydroxy-13-methyl-17-oxo-7,8,9,11,12,13,14,15,16,17-decahydro-6H-cyclopenta[a]phenanthren-15-yl)-N-(5-methylthiazol-2-yl)propanamide] | 81% | 5% | 95%
4 | Cc1cnc(NC(=O)CC[C@@H]2CC(=O)[C@@]3(C)CCC4c5ccccc5CCC4C23)s1 (stereo partly drawn) [Compound 83, 3-((13S,15R)-13-methyl-17-oxo-7,8,9,11,12,13,14,15,16,17-decahydro-6H-cyclopenta[a]phenanthren-15-yl)-N-(5-methylthiazol-2-yl)propanamide] | 74% | 1% | 92%
